Experimental data as given in patent US8809376B2, “Indanyloxydihydrobenzofuranylacetic acids” (Boehringer Ingelheim International GmbH, priority 2012, dated 2014).

What follows are molecules tested against human GPR40 receptor (Homo sapiens, UniProt O14842) (assay: Assay I: IP1 accumulation (IPOne assay system) in 1321N1 cells stably expressing human GPR40 receptor). Details: stimulated 1 hour at 37° C., 10% CO2, LiCl 50 mM.
Assay type: cell-based
Method: IP1 accumulation measurements using the IPOne assay system—1321N1 cells stably expressing human GPR40 receptor (Euroscreen, Belgium) are seeded 24 h before the assay in black clear-bottom collagen-coated 384-well plates in culture medium containing 10% FCS, 1% Na-Pyruvate and 400 μg/mL G418. IP1 is assayed according to the Manufacturer's description (Cisbio Bioassays, France). In brief, the assay is started by substitution of the culture medium by stimulation buffer (Hepes 10 mM, CaCl2 1 mM, MgCl2 0.5 mM, KCl 4.2 mM, NaCl 146 mM and glucose 5.5 mM, pH 7.4) without LiCl. Cells are stimulated for 1 hour at 37° C., 10% CO2 by addition of the compounds that are diluted in stimulation buffer containing LiCl yielding a final LiCl concentration of 50 mM. Assays are stopped by adding HTRF-conjugates (IP1-d2 and Anti-IP1 cryptate Tb) and lysis buffer, provided by the manufacturer. After an incubation time of 1 hour at room temperature plates are measured using an EnVision™, Perkin Elmer. The obtained fluorescence ratios at 665/615 nM are then used to calculate the pEC50 values using GraphPad Prism 5 (Graphpad Software Inc, USA) by interpolation using an IP1 reference curve and subsequent sigmoidal curve fitting allowing for a variable hill slope.

Chain of human GPR40 receptor (O14842 whole entry): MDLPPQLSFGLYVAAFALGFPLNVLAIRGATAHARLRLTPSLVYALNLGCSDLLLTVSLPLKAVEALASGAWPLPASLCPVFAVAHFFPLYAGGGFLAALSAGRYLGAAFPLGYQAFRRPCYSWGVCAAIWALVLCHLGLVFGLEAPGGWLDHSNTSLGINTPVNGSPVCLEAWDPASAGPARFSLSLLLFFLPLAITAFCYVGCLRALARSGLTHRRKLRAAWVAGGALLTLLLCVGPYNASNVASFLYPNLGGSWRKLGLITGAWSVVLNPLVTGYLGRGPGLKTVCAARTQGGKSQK

Structure (SMILES)	EC50
O=C(O)C[C@@H]1COc2cc(O[C@@H]3CCc4c3ccc(C(F)(F)F)c4Cc3ccccc3)ccc21 [Example 10, {(S)-6-[(R)-4-Benzyl-5-trifluoromethyl-indan-1-yloxy]-2,3-dihydro-benzofuran-3-yl}-acetic acid]	3 nM
N#Cc1ccc2c(c1Cc1ccc(O)cc1)CC[C@H]2Oc1ccc2c(c1)OC[C@H]2CC(=O)O [Example 11, {(S)-6-[(R)-5-Cyano-4-(4-hydroxy-benzyl)-indan-1-yloxy]-2,3-dihydro-benzofuran-3-yl}-acetic acid]	12 nM
COc1cccc(Cc2c(C#N)ccc3c2CC[C@H]3Oc2ccc3c(c2)OC[C@H]3CC(=O)O)c1 [Example 3, {(S)-6-[(R)-5-Cyano-4-(3-methoxy-benzyl)-indan-1-yloxy]-2,3-dihydro-benzofuran-3-yl}-acetic acid]	24 nM
COc1ccc(Cc2c(C#N)ccc3c2CC[C@H]3Oc2ccc3c(c2)OC[C@H]3CC(=O)O)cc1 [Example 4, {(S)-6-[(R)-5-Cyano-4-(4-methoxy-benzyl)-indan-1-yloxy]-2,3-dihydro-benzofuran-3-yl}-acetic acid]	5 nM
N#Cc1cccc(Cc2c(C#N)ccc3c2CC[C@H]3Oc2ccc3c(c2)OC[C@H]3CC(=O)O)c1 [Example 9, {(S)-6-[(R)-5-Cyano-4-(3-cyano-benzyl)-indan-1-yloxy]-2,3-dihydro-benzofuran-3-yl}-acetic acid]	29 nM
O=C(O)C[C@@H]1COc2cc(O[C@@H]3CCc4c(Cc5ccccc5)ccc(F)c43)ccc21 [Example 16, {(S)-6-[(R)-4-Benzyl-7-fluoro-indan-1-yloxy]-2,3-dihydrobenzofuran-3-yl}-acetic acid]	5 nM
COc1cccc(Cc2ccc(F)c3c2CC[C@H]3Oc2ccc3c(c2)OC[C@H]3CC(=O)O)c1 [Example 14, {(S)-6-[(R)-7-Fluoro-4-(3-methoxybenzyl)-indan-1-yloxy]-2,3-dihydrobenzofuran-3-yl}-acetic acid]	4 nM
Cc1cccc(C)c1Cc1c(C#N)ccc2c1CC[C@H]2Oc1ccc2c(c1)OC[C@H]2CC(=O)O [Example 5, {(S)-6-[(R)-5-Cyano-4-(2,6-dimethyl-benzyl)-indan-1-yloxy]-2,3-dihydro-benzofuran-3-yl}-acetic acid]	6 nM
COc1ccc(Cc2ccc(F)c3c2CC[C@H]3Oc2ccc3c(c2)OC[C@H]3CC(=O)O)cc1 [Example 13, {(S)-6-[(R)-7-Fluoro-4-(4-methoxybenzyl)-indan-1-yloxy]-2,3-dihydrobenzofuran-3-yl}acetic acid]	5 nM
N#Cc1ccc2c(c1Cc1ccc(Cl)nc1)CC[C@H]2Oc1ccc2c(c1)OC[C@H]2CC(=O)O [Example 2, {(S)-6-[(R)-4-(6-Chloro-pyridin-3-ylmethyl)-5-cyano-indan-1-yloxy]-2,3-dihydro-benzofuran-3-yl}-acetic acid]	36 nM
O=C(O)C[C@@H]1COc2cc(O[C@@H]3CCc4c(Cc5ccc(Cl)nc5)ccc(F)c43)ccc21 [Example 15]	35 nM
